Experiment [1] has as its system parental, wt and mutant E-cadherin expressing MDA-MB-435S cells. The experiment can be described thus: Sensitivity profiling by XTT-cell proliferation and viability assay. It is filed as cell-based, human. As to conditions: 48 h treatment, increasing concentrations; parental vs wt vs mutant E-cadherin cells. The procedure:
Cells were seeded at a density of […] cells per well in 96-well microtiter plates (Nunc, Wiesbaden-Biebrich, Germany) in 100 μl DMEM with 10% FCS per-well, and cell proliferation was investigated by XTT-cell proliferation and viability assay (Roche Molecular Biochemicals, Mannheim, Germany). After 24, 48 and 72 h, 50 μl XTT labeling mixture was added. The cleavage of the tetrazolium salt XTT to form a formazan dye that occurs in metabolically active viable cells was quantified spectrophotometrically by measuring the absorbance of the formazan product at 450 nm by an ELISA plate reader. The absorbance values obtained when culture medium without cells was assayed was subtracted from the values obtained with cells. Quadruplicate determinations were performed for each time point. The sensitivity of parental, wt and mutant E-cadherin expressing MDA-MB-435S cells to the chemotherapeutic agents cisplatin, etoposide and 5-FU was investigated by XTT-cell proliferation and viability assay as described above. […] After 48 h, 50 μXTT labeling mixture was added and the absorbance values at 450 nm were measured spectrophotometrically by an ELISA plate reader. The absorbance values obtained when culture medium without cells was assayed, were subtracted from the values obtained with cells. […] The percentage of viable cells was determined corresponding to non-treated cells.
(In general: Formazan colour is commonly taken as a measure of viable cells.)

Experiment [2] has the same test system. The experiment can be described thus: Colony formation assay. It is filed as cell-based, human. As to conditions: 2 h treatment, colonies counted after 7 days; parental vs wt vs mutant E-cadherin cells. The procedure:
Chemosensitivity to cisplatin, etoposide and 5-FU of parental, wt and mutant E-cadherin expressing MDA-MB-435S cells was investigated by colony formation assay. Cells were seeded at a density of 2×10^3 cells per 6-well and treated 3 h later for 2 h with cisplatin, etoposide or 5-FU. Colonies were fixed and stained after 7 days with Diff Quick Reagent (Dade Behring, Liederbach, Germany) and the colony number was determined with Scion Image Software from Scion Corporation (Frederick, USA). The percentage of colonies was determined corresponding to non-treated cells.

Structures are written as SMILES.

Turning to `N.N.[Cl][Pt][Cl]` [cisplatin], the “sensitivity profile, cell survival by XTT assay” value in experiment [1] was “reduced sensitivity of wt or mutant E-cadherin expressing MDA-MB-435S cells as compared to parental cells”. In addition, in experiment [2], the “sensitivity profile, colony formation” value is given as “reduced sensitivity of wt or mutant E-cadherin expressing MDA-MB-435S cells as compared to parental cells”.
